Measurements reported in the NIST ThermoML archive (doi:10.1016/j.jct.2012.08.010).
Numbers after ± are expanded uncertainties.

assay: xn = mol fraction of the nth substance listed; details: 288.15 K; 101 kPa; Liquid; Vibrating tube method; x2 = 0

SMILES	mass density
Cc1ccccc1C [1,2-dimethylbenzene] + C=C[Si]1(C)O[Si](C)(C=C)O[Si](C)(C=C)O[Si](C)(C=C)O1	884.07 ± 0.12 kg/m3
Cc1cccc(C)c1 [1,3-dimethylbenzene] + C=C[Si]1(C)O[Si](C)(C=C)O[Si](C)(C=C)O[Si](C)(C=C)O1	868.39 ± 0.13 kg/m3
Cc1ccc(C)cc1 [1,4-dimethylbenzene] + C=C[Si]1(C)O[Si](C)(C=C)O[Si](C)(C=C)O[Si](C)(C=C)O1	865.3 ± 0.1 kg/m3
CCc1ccccc1 [ethylbenzene] + C=C[Si]1(C)O[Si](C)(C=C)O[Si](C)(C=C)O[Si](C)(C=C)O1	871.31 ± 0.13 kg/m3

same assay, conditions: 298.15 K; 101 kPa; Liquid; Vibrating tube method; x2 = 0

SMILES	mass density
Cc1ccccc1C [1,2-dimethylbenzene] + C=C[Si]1(C)O[Si](C)(C=C)O[Si](C)(C=C)O[Si](C)(C=C)O1	875.67 ± 0.13 kg/m3
Cc1cccc(C)c1 [1,3-dimethylbenzene] + C=C[Si]1(C)O[Si](C)(C=C)O[Si](C)(C=C)O[Si](C)(C=C)O1	859.83 ± 0.13 kg/m3
Cc1ccc(C)cc1 [1,4-dimethylbenzene] + C=C[Si]1(C)O[Si](C)(C=C)O[Si](C)(C=C)O[Si](C)(C=C)O1	856.62 ± 0.13 kg/m3
CCc1ccccc1 [ethylbenzene] + C=C[Si]1(C)O[Si](C)(C=C)O[Si](C)(C=C)O[Si](C)(C=C)O1	862.55 ± 0.13 kg/m3

same assay, conditions: 308.15 K; 101 kPa; Liquid; Vibrating tube method; x2 = 0

SMILES	mass density
Cc1ccccc1C [1,2-dimethylbenzene] + C=C[Si]1(C)O[Si](C)(C=C)O[Si](C)(C=C)O[Si](C)(C=C)O1	867.3 ± 0.1 kg/m3
Cc1cccc(C)c1 [1,3-dimethylbenzene] + C=C[Si]1(C)O[Si](C)(C=C)O[Si](C)(C=C)O[Si](C)(C=C)O1	851.25 ± 0.13 kg/m3
Cc1ccc(C)cc1 [1,4-dimethylbenzene] + C=C[Si]1(C)O[Si](C)(C=C)O[Si](C)(C=C)O[Si](C)(C=C)O1	847.97 ± 0.13 kg/m3
CCc1ccccc1 [ethylbenzene] + C=C[Si]1(C)O[Si](C)(C=C)O[Si](C)(C=C)O[Si](C)(C=C)O1	853.75 ± 0.13 kg/m3

same assay, conditions: 318.15 K; 101 kPa; Liquid; Vibrating tube method; x2 = 0

SMILES	mass density
Cc1ccccc1C [1,2-dimethylbenzene] + C=C[Si]1(C)O[Si](C)(C=C)O[Si](C)(C=C)O[Si](C)(C=C)O1	858.81 ± 0.13 kg/m3
Cc1cccc(C)c1 [1,3-dimethylbenzene] + C=C[Si]1(C)O[Si](C)(C=C)O[Si](C)(C=C)O[Si](C)(C=C)O1	842.58 ± 0.13 kg/m3
Cc1ccc(C)cc1 [1,4-dimethylbenzene] + C=C[Si]1(C)O[Si](C)(C=C)O[Si](C)(C=C)O[Si](C)(C=C)O1	839.21 ± 0.13 kg/m3
CCc1ccccc1 [ethylbenzene] + C=C[Si]1(C)O[Si](C)(C=C)O[Si](C)(C=C)O[Si](C)(C=C)O1	844.87 ± 0.13 kg/m3

same assay, conditions: 328.15 K; 101 kPa; Liquid; Vibrating tube method; x2 = 0

SMILES	mass density
Cc1ccccc1C [1,2-dimethylbenzene] + C=C[Si]1(C)O[Si](C)(C=C)O[Si](C)(C=C)O[Si](C)(C=C)O1	850.24 ± 0.13 kg/m3
Cc1cccc(C)c1 [1,3-dimethylbenzene] + C=C[Si]1(C)O[Si](C)(C=C)O[Si](C)(C=C)O[Si](C)(C=C)O1	833.85 ± 0.14 kg/m3
Cc1ccc(C)cc1 [1,4-dimethylbenzene] + C=C[Si]1(C)O[Si](C)(C=C)O[Si](C)(C=C)O[Si](C)(C=C)O1	830.39 ± 0.14 kg/m3
CCc1ccccc1 [ethylbenzene] + C=C[Si]1(C)O[Si](C)(C=C)O[Si](C)(C=C)O[Si](C)(C=C)O1	835.93 ± 0.13 kg/m3

assay: refractive index (Na D-line) (dimensionless); details: 288.15 K; 101.33 kPa; Liquid; Standard Abbe refractometry

SMILES	refractive index
Cc1ccccc1C [1,2-dimethylbenzene]	1.50775 ± 0.00031
Cc1cccc(C)c1 [1,3-dimethylbenzene]	1.49969 ± 0.00031
Cc1ccc(C)cc1 [1,4-dimethylbenzene]	1.49836 ± 0.00031
C=C[Si]1(C)O[Si](C)(C=C)O[Si](C)(C=C)O[Si](C)(C=C)O1 (stereo not given) [2,4,6,8-tetramethyl-2,4,6,8-tetravinylcycloterasiloxane]	1.43674 ± 0.00033
CCc1ccccc1 [ethylbenzene]	1.49834 ± 0.00031

same assay, conditions: 298.15 K; 101.33 kPa; Liquid; Standard Abbe refractometry

SMILES	refractive index
Cc1ccccc1C [1,2-dimethylbenzene]	1.50257 ± 0.00031
Cc1cccc(C)c1 [1,3-dimethylbenzene]	1.49444 ± 0.00031
Cc1ccc(C)cc1 [1,4-dimethylbenzene]	1.49298 ± 0.00031
C=C[Si]1(C)O[Si](C)(C=C)O[Si](C)(C=C)O[Si](C)(C=C)O1 (stereo not given) [2,4,6,8-tetramethyl-2,4,6,8-tetravinylcycloterasiloxane]	1.43202 ± 0.00033
CCc1ccccc1 [ethylbenzene]	1.49297 ± 0.00031

same assay, conditions: 308.15 K; 101.33 kPa; Liquid; Standard Abbe refractometry

SMILES	refractive index
Cc1ccccc1C [1,2-dimethylbenzene]	1.49724 ± 0.00031
Cc1cccc(C)c1 [1,3-dimethylbenzene]	1.48894 ± 0.00031
Cc1ccc(C)cc1 [1,4-dimethylbenzene]	1.48743 ± 0.00031
C=C[Si]1(C)O[Si](C)(C=C)O[Si](C)(C=C)O[Si](C)(C=C)O1 (stereo not given) [2,4,6,8-tetramethyl-2,4,6,8-tetravinylcycloterasiloxane]	1.4273 ± 0.0003
CCc1ccccc1 [ethylbenzene]	1.48747 ± 0.00031

same assay, conditions: 318.15 K; 101.33 kPa; Liquid; Standard Abbe refractometry

SMILES	refractive index
Cc1ccccc1C [1,2-dimethylbenzene]	1.49201 ± 0.00031
Cc1cccc(C)c1 [1,3-dimethylbenzene]	1.48355 ± 0.00031
Cc1ccc(C)cc1 [1,4-dimethylbenzene]	1.48202 ± 0.00031
C=C[Si]1(C)O[Si](C)(C=C)O[Si](C)(C=C)O[Si](C)(C=C)O1 (stereo not given) [2,4,6,8-tetramethyl-2,4,6,8-tetravinylcycloterasiloxane]	1.42257 ± 0.00033
CCc1ccccc1 [ethylbenzene]	1.48202 ± 0.00031

same assay, conditions: 328.15 K; 101.33 kPa; Liquid; Standard Abbe refractometry

SMILES	refractive index
Cc1ccccc1C [1,2-dimethylbenzene]	1.48661 ± 0.00031
Cc1cccc(C)c1 [1,3-dimethylbenzene]	1.4782 ± 0.0003
Cc1ccc(C)cc1 [1,4-dimethylbenzene]	1.47654 ± 0.00031
C=C[Si]1(C)O[Si](C)(C=C)O[Si](C)(C=C)O[Si](C)(C=C)O1 (stereo not given) [2,4,6,8-tetramethyl-2,4,6,8-tetravinylcycloterasiloxane]	1.41785 ± 0.00033
CCc1ccccc1 [ethylbenzene]	1.47649 ± 0.00031
